Assays:
ECHCG (Barnyardgrass) = experiment: Preemergence herbicidal evaluation; format: in vivo, Echinochloa crus-galli; settings: rated 4-5 weeks after treatment; for ECHCG rating: preemergence, 0-9 scale
Outline: (§1)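 Seeds were planted in potting soil in cups, then sprayed preemergence with the test compound in aqueous acetone at about 0.0156 to 0.500 kg per hectare. Cups were kept under greenhouse conditions and visually rated 4–5 weeks after treatment on a 0–9 scale against an untreated control.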

[1] = test system: TRZAWR (Wheat, Winter, cv Riband); experiment: Preemergence herbicidal evaluation; format: in vivo, Triticum aestivum; settings: rated 4-5 weeks after treatment; for TRZAWR rating: preemergence, 0-9 scale
Outline: as §1

CYPIR (Rice Flatsedge) = experiment: Postemergence weed control under flooded paddy conditions; format: in vivo, Cyperus iria; settings: postemergence weeds
Outline: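 Containers holding 3–5 cm weeds and rice at 1.5–2.5 leaves are flooded to 1.5–3 cm above soil. Compound in 50/50 v/v aqueous/acetone is then added directly to the water, about 0.0313–0.500 kg/ha. Plants are kept in the greenhouse and rated 0–9 visually at 3–4 weeks.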

[2] = test system: IPOHE (Morningglory, Ivyleaf); experiment: Postemergence herbicidal evaluation; format: in vivo, Ipomoea hederacea; settings: for Herbicidal rating IPOHE: postemergence
Outline: (§2)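 ~2-wk seedlings; postemergence spray, 40 psi; vehicle 1:1 acetone:water + 0.5% Tween 20; rate ≈0.0156–0.500 kg/ha; greenhouse hold; scored 4–5 wk after treatment, 0–9 scale vs control; repeat tests averaged.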

ZEAMX (Corn, Field) = experiment: Preemergence herbicidal evaluation; format: in vivo, Zea mays; settings: rated 4-5 weeks after treatment; for ZEAMX rating: preemergence, 0-9 scale
Outline: as §1

[3] = test system: GLXMAW (Soybean, Williams); experiment: Preemergence herbicidal evaluation; format: in vivo, Glycine max, (L.) Merr. cv Williams; settings: rated 4-5 weeks after treatment; for GLXMAW rating: preemergence, 0-9 scale
Outline: as §1

AMBEL (Ragweed, Common) = experiment: Postemergence herbicidal evaluation; format: in vivo, Ambrosia artemisifolia; settings: for Herbicidal rating AMBEL: postemergence
Outline: as §2

[4] = test system: IPOHE (Morningglory, Ivyleaf); experiment: Preemergence herbicidal evaluation; format: in vivo, Ipomoea hederacea; settings: rated 4-5 weeks after treatment; for IPOHE rating: preemergence, 0-9 scale
Outline: as §1

GALAP (Galium) = experiment: Postemergence herbicidal evaluation; format: in vivo, Galium aparine; settings: for Herbicidal rating GALAP: postemergence
Outline: as §2

CASOB (Sicklepod) [5] = experiment: Preemergence herbicidal evaluation; format: in vivo, Cassia obtusifolia; settings: rated 4-5 weeks after treatment; for CASOB rating: preemergence, 0-9 scale
Outline: as §1

ABUTH (Velvetleaf) = experiment: Preemergence herbicidal evaluation; format: in vivo, Abutilon theophrasti; settings: rated 4-5 weeks after treatment; for ABUTH rating: preemergence, 0-9 scale
Outline: as §1

[6] = test system: SAGPY (Arrowhead (Pygmaea)); experiment: Preemergence weed control under flooded paddy conditions; format: in vivo, Sagittaria pygmaea; settings: rated 3-4 weeks after treatment
Outline: (§3)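 Ratings on a 0-9 visual scale cover stand, vigor, malformation, size, chlorosis and overall appearance relative to a control, taken three to four weeks post-treatment. Application was into flood water over freshly sown silt loam at roughly 0.0313 to 0.500 kg/ha.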

CASOB (Sicklepod) [7] = experiment: Postemergence herbicidal evaluation; format: in vivo, Cassia obtusifolia; settings: for Herbicidal rating CASOB: postemergence
Outline: as §2

MOOVA (Monochoria) = experiment: Preemergence weed control under flooded paddy conditions; format: in vivo, Monochoria vaginalis; settings: rated 3-4 weeks after treatment
Outline: as §3

C=CCN1C(=O)C(CC(=O)NS(=O)(=O)CC)SC1=Nc1cc(-n2c(=O)cc(C(F)(F)F)n(C)c2=O)c(F)cc1Cl (stereo not drawn) [Compound 104, 3-Allyl-2-{{2-chloro-5-[3,6-dihydro-3-methyl-2,6-dioxo-4-(trifluoromethyl)-1(2H)-pyrimidinyl]-4-fluorophenyl}imino}-N-(ethylsulfonyl)-4-oxo-5-thiazolidineacetamide]
ECHCG rating (ECHCG (Barnyardgrass); 0.0625 kg/ha): 0.0
ECHCG rating (ECHCG (Barnyardgrass); 0.1250 kg/ha): 0.0
ECHCG rating (ECHCG (Barnyardgrass); 0.2500 kg/ha): 1.0
ECHCG rating (ECHCG (Barnyardgrass); 0.5000 kg/ha): 1.0
TRZAWR rating ([1]; 0.0625 kg/ha): 0.0
TRZAWR rating ([1]; 0.1250 kg/ha): 0.0
TRZAWR rating ([1]; 0.2500 kg/ha): 0.0
TRZAWR rating ([1]; 0.5000 kg/ha): 1.0
Herbicidal rating CYPIR (CYPIR (Rice Flatsedge); Rate 0.0313 kg/ha, rated 3 to 4 weeks after treatment): 5.0
Herbicidal rating CYPIR (CYPIR (Rice Flatsedge); Rate 0.0625 kg/ha, rated 3 to 4 weeks after treatment): 9.0
Herbicidal rating CYPIR (CYPIR (Rice Flatsedge); Rate 0.1250 kg/ha, rated 3 to 4 weeks after treatment): 9.0
Herbicidal rating CYPIR (CYPIR (Rice Flatsedge); Rate 0.2500 kg/ha, rated 3 to 4 weeks after treatment): 9.0
Herbicidal rating IPOHE ([2]; rate 0.0156 kg/ha): 9.0
Herbicidal rating IPOHE ([2]; rate 0.0313 kg/ha): 9.0
Herbicidal rating IPOHE ([2]; rate 0.0625 kg/ha): 9.0
Herbicidal rating IPOHE ([2]; rate 0.1250 kg/ha): 9.0
ZEAMX rating (ZEAMX (Corn, Field); 0.0625 kg/ha): 0.0
ZEAMX rating (ZEAMX (Corn, Field); 0.1250 kg/ha): 0.0
ZEAMX rating (ZEAMX (Corn, Field); 0.2500 kg/ha): 0.0
ZEAMX rating (ZEAMX (Corn, Field); 0.5000 kg/ha): 2.0
GLXMAW rating ([3]; 0.0625 kg/ha): 0.0
GLXMAW rating ([3]; 0.1250 kg/ha): 0.0
GLXMAW rating ([3]; 0.2500 kg/ha): 0.0
GLXMAW rating ([3]; 0.5000 kg/ha): 3.0
Herbicidal rating AMBEL (AMBEL (Ragweed, Common); rate 0.0156 kg/ha): 3.0
Herbicidal rating AMBEL (AMBEL (Ragweed, Common); rate 0.0313 kg/ha): 9.0
Herbicidal rating AMBEL (AMBEL (Ragweed, Common); rate 0.0625 kg/ha): 9.0
Herbicidal rating AMBEL (AMBEL (Ragweed, Common); rate 0.1250 kg/ha): 9.0
IPOHE rating ([4]; 0.0625 kg/ha): 0.0
IPOHE rating ([4]; 0.1250 kg/ha): 0.0
IPOHE rating ([4]; 0.2500 kg/ha): 3.0
IPOHE rating ([4]; 0.5000 kg/ha): 9.0
Herbicidal rating GALAP (GALAP (Galium); rate 0.0156 kg/ha): 0.0
Herbicidal rating GALAP (GALAP (Galium); rate 0.0313 kg/ha): 0.0
Herbicidal rating GALAP (GALAP (Galium); rate 0.0625 kg/ha): 1.0
Herbicidal rating GALAP (GALAP (Galium); rate 0.1250 kg/ha): 2.0
CASOB rating (CASOB (Sicklepod) [5]; 0.0625 kg/ha): 0.0
CASOB rating (CASOB (Sicklepod) [5]; 0.1250 kg/ha): 0.0
CASOB rating (CASOB (Sicklepod) [5]; 0.2500 kg/ha): 0.0
CASOB rating (CASOB (Sicklepod) [5]; 0.5000 kg/ha): 0.0
ABUTH rating (ABUTH (Velvetleaf); 0.0625 kg/ha): 3.0
ABUTH rating (ABUTH (Velvetleaf); 0.1250 kg/ha): 8.0
ABUTH rating (ABUTH (Velvetleaf); 0.2500 kg/ha): 9.0
ABUTH rating (ABUTH (Velvetleaf); 0.5000 kg/ha): 9.0
SAGPY herbicidal effect rating ([6]; 0.0313 kg/ha): 6.0
SAGPY herbicidal effect rating ([6]; 0.0625 kg/ha): 9.0
SAGPY herbicidal effect rating ([6]; 0.1250 kg/ha): 9.0
SAGPY herbicidal effect rating ([6]; 0.2500 kg/ha): 9.0
Herbicidal rating CASOB (CASOB (Sicklepod) [7]; rate 0.0156 kg/ha): 0.0
Herbicidal rating CASOB (CASOB (Sicklepod) [7]; rate 0.0313 kg/ha): 0.0
Herbicidal rating CASOB (CASOB (Sicklepod) [7]; rate 0.0625 kg/ha): 0.0
Herbicidal rating CASOB (CASOB (Sicklepod) [7]; rate 0.1250 kg/ha): 1.0
MOOVA herbicidal effect rating (MOOVA (Monochoria); 0.0313 kg/ha): 7.0
MOOVA herbicidal effect rating (MOOVA (Monochoria); 0.0625 kg/ha): 9.0
MOOVA herbicidal effect rating (MOOVA (Monochoria); 0.1250 kg/ha): 9.0
MOOVA herbicidal effect rating (MOOVA (Monochoria); 0.2500 kg/ha): 9.0

Cn1c(C(F)(F)F)cc(=O)n(-c2cc(N=C3NC(=O)CS3)c(Cl)cc2F)c1=O [Compound 39, 3-{4-Chloro-2-fluoro-5-[(4-oxo-2-thiazolidinylidene)amino]phenyl}-1-methyl-6-(trifluoromethyl)-2,4(1H,3H)-pyrimidinedione]
Preemergence herbicidal rating ECHCG (ECHCG (Barnyardgrass); rate 0.0156 kg/ha): 0.0
Preemergence herbicidal rating ECHCG (ECHCG (Barnyardgrass); rate 0.0313 kg/ha): 0.0
Preemergence herbicidal rating ECHCG (ECHCG (Barnyardgrass); rate 0.0625 kg/ha): 0.0
Preemergence herbicidal rating ECHCG (ECHCG (Barnyardgrass); rate 0.1250 kg/ha): 0.0
Preemergence herbicidal rating ECHCG (ECHCG (Barnyardgrass); rate 0.2500 kg/ha): 0.0
Preemergence herbicidal rating TRZAWR ([1]; rate 0.0156 kg/ha): 0.0
Preemergence herbicidal rating TRZAWR ([1]; rate 0.0313 kg/ha): 0.0
Preemergence herbicidal rating TRZAWR ([1]; rate 0.0625 kg/ha): 0.0
Preemergence herbicidal rating TRZAWR ([1]; rate 0.1250 kg/ha): 1.0
Preemergence herbicidal rating TRZAWR ([1]; rate 0.2500 kg/ha): 2.0
Herbicidal rating CYPIR (CYPIR (Rice Flatsedge); rate 0.0313 kg/ha, 3-4 weeks after treatment): 0.0
Herbicidal rating CYPIR (CYPIR (Rice Flatsedge); rate 0.0625 kg/ha, 3-4 weeks after treatment): 0.0
Herbicidal rating CYPIR (CYPIR (Rice Flatsedge); rate 0.1250 kg/ha, 3-4 weeks after treatment): 0.0
Herbicidal rating CYPIR (CYPIR (Rice Flatsedge); rate 0.2500 kg/ha, 3-4 weeks after treatment): 0.0
Postemergence herbicidal rating IPOHE ([2]; Rate 0.0158 kg/ha): 2.0
Postemergence herbicidal rating IPOHE ([2]; Rate 0.0315 kg/ha): 7.0
Postemergence herbicidal rating IPOHE ([2]; Rate 0.0630 kg/ha): 7.0
Preemergence herbicidal rating ZEAMX (ZEAMX (Corn, Field); rate 0.0156 kg/ha): 0.0
Preemergence herbicidal rating ZEAMX (ZEAMX (Corn, Field); rate 0.0313 kg/ha): 0.0
Preemergence herbicidal rating ZEAMX (ZEAMX (Corn, Field); rate 0.0625 kg/ha): 0.0
Preemergence herbicidal rating ZEAMX (ZEAMX (Corn, Field); rate 0.1250 kg/ha): 2.0
Preemergence herbicidal rating ZEAMX (ZEAMX (Corn, Field); rate 0.2500 kg/ha): 5.0
Preemergence herbicidal rating GLXMAW ([3]; rate 0.0156 kg/ha): 0.0
Preemergence herbicidal rating GLXMAW ([3]; rate 0.0313 kg/ha): 0.0
Preemergence herbicidal rating GLXMAW ([3]; rate 0.0625 kg/ha): 0.0
Preemergence herbicidal rating GLXMAW ([3]; rate 0.1250 kg/ha): 5.0
Preemergence herbicidal rating GLXMAW ([3]; rate 0.2500 kg/ha): 7.0
Postemergence herbicidal rating AMBEL (AMBEL (Ragweed, Common); Rate 0.0158 kg/ha): 0.0
Postemergence herbicidal rating AMBEL (AMBEL (Ragweed, Common); Rate 0.0315 kg/ha): 3.0
Postemergence herbicidal rating AMBEL (AMBEL (Ragweed, Common); Rate 0.0630 kg/ha): 7.0
Preemergence herbicidal rating IPOHE ([4]; rate 0.0156 kg/ha): 0.0
Preemergence herbicidal rating IPOHE ([4]; rate 0.0313 kg/ha): 0.0
Preemergence herbicidal rating IPOHE ([4]; rate 0.0625 kg/ha): 1.0
Preemergence herbicidal rating IPOHE ([4]; rate 0.1250 kg/ha): 1.0
Preemergence herbicidal rating IPOHE ([4]; rate 0.2500 kg/ha): 9.0
Postemergence herbicidal rating GALAP (GALAP (Galium); Rate 0.0158 kg/ha): 0.0
Postemergence herbicidal rating GALAP (GALAP (Galium); Rate 0.0315 kg/ha): 0.0
Postemergence herbicidal rating GALAP (GALAP (Galium); Rate 0.0630 kg/ha): 0.0
Preemergence herbicidal rating CASOB (CASOB (Sicklepod) [5]; rate 0.0313 kg/ha): 0.0
Preemergence herbicidal rating CASOB (CASOB (Sicklepod) [5]; rate 0.0625 kg/ha): 0.0
Preemergence herbicidal rating CASOB (CASOB (Sicklepod) [5]; rate 0.1250 kg/ha): 2.0
Preemergence herbicidal rating CASOB (CASOB (Sicklepod) [5]; rate 0.2500 kg/ha): 1.0
Preemergence herbicidal rating ABUTH (ABUTH (Velvetleaf); rate 0.0156 kg/ha): 0.0
Preemergence herbicidal rating ABUTH (ABUTH (Velvetleaf); rate 0.0313 kg/ha): 0.0
Preemergence herbicidal rating ABUTH (ABUTH (Velvetleaf); rate 0.0625 kg/ha): 1.0
Preemergence herbicidal rating ABUTH (ABUTH (Velvetleaf); rate 0.1250 kg/ha): 9.0
Preemergence herbicidal rating ABUTH (ABUTH (Velvetleaf); rate 0.2500 kg/ha): 9.0
Herbicidal rating SAGPY ([6]; 0.0313 kg/ha): 0.0
Herbicidal rating SAGPY ([6]; 0.0625 kg/ha): 0.0
Herbicidal rating SAGPY ([6]; 0.1250 kg/ha): 0.0
Herbicidal rating SAGPY ([6]; 0.2500 kg/ha): 4.0
Postemergence herbicidal rating CASOB (CASOB (Sicklepod) [7]; Rate 0.0158 kg/ha): 0.0
Postemergence herbicidal rating CASOB (CASOB (Sicklepod) [7]; Rate 0.0315 kg/ha): 0.0
Postemergence herbicidal rating CASOB (CASOB (Sicklepod) [7]; Rate 0.0630 kg/ha): 0.0
Herbicidal rating MOOVA (MOOVA (Monochoria); 0.0313 kg/ha): 9.0
Herbicidal rating MOOVA (MOOVA (Monochoria); 0.0625 kg/ha): 9.0
Herbicidal rating MOOVA (MOOVA (Monochoria); 0.1250 kg/ha): 9.0
Herbicidal rating MOOVA (MOOVA (Monochoria); 0.2500 kg/ha): 9.0

Source: patent publication US20020137929A1, “1 - (3-heterocyclylphenyl) isothiourea, -isourea, -guanidine and -amidine herbicidal agents” (Intellectual Property Department, BASF Aktiengesellschaft, priority 1998, published 2002)
